# Test results published in patent US20210386754A1, “COMPOSITIONS AND METHODS FOR TREATING ATHEROSCLEROTIC VASCULAR DISEASE” (AUGUSTA UNIVERSITY RESEARCH INSTITUTE, INC., priority 2020, published 2021).
# “Also recorded” adds a separate entry of the source.
# Tests used:
# [1] = test system: F4/80+ macrophages of atherosclerotic ApoE-/- aorta; experiment: In vivo DiI-nLDL uptake by macrophages of atherosclerotic arteries; design: species or system mouse; settings: EIPA 25 mg/kg/day, i.p. for 3 days; DiI-nLDL 100 μg retro-orbitally; 12 weeks Western diet
# Description: Isolation of macrophages from atherosclerotic arteries: 8-10-week-old ApoE^−/− mice were fed a Western diet for 12 weeks. Mice were treated with vehicle or EIPA (25 mg/kg/day, i.p.) for 3 days. On the day of sacrifice, mice were retro-orbitally injected with vehicle or 100 μg Dil-nLDL. After 4 hours, mice were anaesthetized and perfused with ice-cold PBS for 5 min and the entire thoracic aorta with LCA was isolated. Following removal of the adventitia, macrophages were isolated using the Neonatal Heart Dissociation Kit (Miltenyi Biotech.) and CD11b microbeads (Miltenyi Biotech.). Cells were stained with anti-F4/80-APC (clone BM8) or IgG control antibodies (Biolegend). Dil fluorescence was measured in F4/80-positive macrophages [Dil (Ex: 549 nm, Em: 565 nm) and APC (Ex: 640 nm, Em: 670 nm)].
# RAW 264.7 macrophages [2] = experiment: Cell viability assay, LIVE/DEAD Fixable Far Red dye; format: cell-based; settings: EIPA 25 μM, 1 hr, then PMA 4 hours
# Description: Cell viability assay: RAW 264.7 macrophages were plated in 24 well plates at a density of 1×10^6 cells/mL. Twenty four hours later, macrophages were pre-incubated with vehicle or EIPA (25 μM, 1 hr) and treated with PMA (1 μM, 4 hrs). Cells were fixed in 2% PFA, resuspended in FACS buffer (2% BSA and 0.01% sodium azide in PBS), and stained with the LIVE/DEAD™ Fixable Far Red dye to identify live cells. Fluorescence intensity was measured using the FL4 channel (Ex: 650 nm, Em: 660 nm).
# [3] = test system: macrophages (SR-mediated ox-LDL uptake); experiment: SR-mediated ox-LDL uptake; format: cell-based; settings: EIPA 25 μM, 1 hr; ox-LDL 50 μg/ml
# Description: (§1) Foam cell formation: THP-1 macrophages or bone marrow-derived macrophages were treated with vehicle, known macropinocytosis stimulators (PMA 1 μM, M-CSF 100 ng/mL or PDGF 200 ng/mL)+/− macropinocytosis inhibitors (imipramine 10 μM or EIPA 25 μM; 1 hour pre-incubation) in the presence of nLDL, ox-LDL, or ac-LDL ([…]) for 24 hours. Cells were fixed in 2% PFA and stained with Nile Red (50 ng/mL) for 7 min. Fluorescence intensity was measured using the FL3 channel for Nile Red (Ex: 488 nm, Em: 670 nm).
# RAW 264.7 macrophages [4] = experiment: Measurement of cholesterol efflux (DiI); format: cell-based; settings: EIPA 25 μM, 1 hour
# Description: RAW 264.7 macrophages were pretreated with vehicle or EIPA (25 μM, 1 hour) and incubated with PMA (1 μM) in the presence or absence of Dil-LDL (50 μg/mL) at 37° C. for 24 h. Cells were washed 3 times with PBS, RPMI-1640 medium containing 1% FBS was added and cells incubated for another 24 hours. Finally, the medium was collected and Dil fluorescence intensity in the media was measured using a CLARIOstar multi-mode microplate reader.
# Wild type BMDM = experiment: Cytokine secretion, LEGENDplex bead-based immunoassay; format: cell-based, mouse
# Description: Wild type BMDM were incubated with vehicle or treated with EIPA (25 μM, 24 hours). Cytokine secretion into the media was quantified using the LEGENDplex™ (mouse inflammation panel) bead-based immunoassay according to the manufacturer's instructions (BioLegend, San Diego, Calif., USA). Data were acquired using four-color BD FACSCalibur (BD Biosciences, San Jose, Calif., USA) and analyzed using the LEGENDplex Data Analysis software (BioLegend).
# [5] = test system: CD36-/-/SR-A-/- BMDM overexpressing HRasG12V; experiment: Ras (HRasG12V)-induced ox-/ac-LDL internalization, Nile Red FACS; format: cell-based, mouse; settings: EIPA 25 μM, 1 hr; 50 μg/mL ox-LDL or ac-LDL, 24 hr
# Description: as §1
# HRasG12V mutant adenovirus (AD-HRasG12V) and control adenovirus (AD-GFP) were obtained from Dr. Brian Stansfield. Adenovirus multiplicity of infection (MOI) was calculated according to the OD260 of the adenovirus. Macrophages grown at 60-70% confluence were incubated in 500 μl basal medium containing Ad-GFP or Ad-HRasG12V adenovirus at 200 MOI (multiplicity of infection). After 4 hours, media was replaced with fresh complete tissue culture medium for a continuous culture. Cells were treated as indicated within 48 hours after viral transfection and collected for flow cytometry. Overexpression of adenovirus was confirmed by measuring GFP fluorescence. Fluorescence intensity was measured using the FL1 channel GFP (Ex: 488 nm, Em: 530 nm).
# [6] = test system: THP-1 monocytes on human aortic endothelial cells; experiment: Monocyte adhesion assay; format: cell-based; settings: EIPA 25 μM; HAEC TNFα 10 ng/ml, 4 hr
# Description: Adhesion studies were performed using the human monocyte cell line THP-1. Vehicle- or EIPA (25 μM, 24 hours)-treated THP-1 monocytes were labeled using Vybrant™ CFDA SE Cell Tracer Kit (ThermoFisher). Human aortic endothelial cell monolayers grown on coverslips in a 24-well plate were treated with vehicle (PBS) or TNFα (10 ng/ml) for 4 hours. Endothelial cells were labeled with Cell Tracker™ Deep Red Dye (ThermoFisher). Fifty microliter of THP-1 monocyte suspension containing 1×10^6 cells was added to each well of endothelial cells, and the plates were gently agitated and placed in a cell culture incubator for 1 hour. At the end of the incubation period, the monolayer was gently washed three times with cold PBS. After the final wash, coverslips were stained with Hoechst 33342 (ThermoFisher) and mounted onto slides using mounting medium. Fluorescent signals were detected using a Zeiss 780 upright confocal microscopy. Quantification was completed with Image-Pro Plus software (Media Cybemetics, Bethesda, Md., USA).
# ApoE-/- mice = experiment: Atherosclerosis model: ApoE-/- mice, partial LCA ligation, Western diet; format: in vivo, mouse; settings: male ApoE-/- mice, Western diet 4 weeks, EIPA via subcutaneously implanted minipump
# RAW 264.7 macrophages [7] = experiment: Clathrin-mediated endocytosis of FITC-transferrin; format: cell-based; settings: EIPA 25 μM, 1 hr; FITC-transferrin 1 μg/ml
# Description: Clathrin- and caveolin-mediated endocytosis: Receptor-mediated uptake of FITC-transferrin (1 μg/mL; clathrin-mediated endocytosis) and Alexa Fluor 488-albumin ([…]; caveolin-mediated endocytosis) was investigated in RAW 264.7 macrophages following their incubation with ±EIPA (25 μM; 1 hour pre-incubation). Fluorescence intensity was measured using the FL1 channel for FITC and Alexa Fluor 488 (Ex: 488 nm, Em: 530 nm).
structure (smiles),measurement,setting,value
"CCN(c1nc(N)c(C(=O)N=C(N)N)nc1Cl)C(C)C [EIPA, 5-(N-ethyl-N-isopropyl)amiloride]",DiI-LDL uptake by F4/80+ macrophages in atherosclerotic arteries,[1],substantially inhibited
same,Cytotoxicity (LIVE/DEAD Fixable Cell Stain),RAW 264.7 macrophages [2],no cell death
same,SR-mediated ox-LDL uptake,[3],without inhibiting; also recorded: does not inhibit
same,cholesterol efflux in lipid-laden macrophages,RAW 264.7 macrophages [4],does not promote
same,IL-6 secretion,"Wild type BMDM; EIPA 25 μM, 24 hours, n = 3, vehicle 2.40 ± 0.58",1.82 ± 0.40 pg/mL
same,TNFα secretion,"Wild type BMDM; EIPA 25 μM, 24 hours, n = 3, vehicle 7.83 ± 1.89",4.76 ± 0.77 pg/mL
same,MCP-1 secretion,"Wild type BMDM; EIPA 25 μM, 24 hours, n = 3, vehicle 38.04 ± 6.03",22.19 ± 2.30 pg/mL
same,"macrophage secretion of TNF-α, MCP-1, and IL-6",Wild type BMDM; in the absence of exogenous lipids,does not inhibit
same,ox- and ac-LDL internalization (Nile Red fluorescence),[5],inhibits
same,monocyte adhesion to TNFα-treated endothelial cells,[6],does not inhibit
same,"atherosclerosis (ORO positive area, LCA)",ApoE-/- mice,inhibited atherosclerosis; also recorded: attenuates
same,clathrin-mediated transferrin endocytosis,RAW 264.7 macrophages [7],without inhibiting; also recorded: does not inhibit
